# Source: US7785566B2, “Pharmaceutical compounds” (GE Healthcare, Inc., priority 2003, dated 2010)
# Tested on: ventricular extrasystoles after LAD artery occlusion
# Test: Antiarrythmic effect in a post myocardial infarction (MI) pig model (LAD ligation)
# Format: in vivo
# Text: The pharmaceutical cPn216-[…]OH (X) was examined according to the following procedure:
# A pig was anaestetised and put on artificial overpressure ventilation. Access to the heart was obtained by a midline sternotomy and removal of the anterior pericardium. The LAD artery was occluded by ligation above the 2nd branch and one of the collaterals was occluded as well. This caused development of frequent ventricular extrasystoles, known to proceed into ventricular tachycardia and fibrillation within minutes from previous experiments with the same type of preparation. […] An initial rise in mean blood pressure was noticed. Ventricular extrasystoles reappeared gradually after about 15 minutes and a new injection of 0.5 mg of the compound of formula (X) was given. […] The pig was then given a lethal dose of potassium chloride to terminate the experiment.
# A similar set of observations was made in a second pig experiment.
# [1] = pig, hour following second 0.5 mg injection
smiles,measurement,setting,value
CCC(C)[C@H](NC(=O)[C@@H]1CCCN1C(=O)[C@H](Cc1cnc[nH]1)NC(=O)[C@@H](NC(=O)[C@H](Cc1ccc(O)cc1)NC(=O)[C@@H](NC(=O)[C@H](CCCNC(=N)N)NC(=O)CNCCC(CCNC(C)(C)/C(C)=N\O)CCNC(C)(C)/C(C)=N\O)C(C)C)C(C)CC)C(=O)O (some centres unmarked) [(X)],Duration of QRS complexes (ECG before and after first injection),"pig, ECG recordings before and after the first injection",shortening
same,Heart rhythm after first intravenous injection,"pig, LAD occluded, frequent ventricular extrasystoles, i.v. 0,5 mg, within few minutes",Complete stabilisation of the condition with return to sinus rhythm
same,Time until ventricular extrasystoles reappeared,"pig, after first i.v. injection of 0,5 mg",about 15 minutes
same,Blood pressure during the following hour,[1],slightly reduced but adequate constant
same,Heart rhythm during the following hour,[1],stable sinus rhythm
same,Mean blood pressure after first injection,"pig, i.v. 0,5 mg, first injection",initial rise
same,Heart rhythm after second injection,"pig, new injection of 0.5 mg after reappearance of extrasystoles",stabilised with regular sinus rhythm
same,Overall anti-arrythmic activity in this preparation,post-MI pig preparation,act as an anti-arrythmic drug
